Measurements as given in US11185077B2, “Attractants for rodents” (priority 2016, dated 2021).

System: brown rats, Rattus norvegicus
Assay: Laboratory arena with two trap boxes: behavioral responses of rats (first entry, time spent)
Assay type: in vivo
Excerpt: A laboratory experimental apparatus was constructed to test the behavioral responses of rats to the compositions described herein. The experimental design is depicted in FIG. 1 and includes a circular galvanized steel arena (200 cm×60 cm) illuminated from above by a 7.5-W red bulb (Halco Lighting Technologies, Norcross, Ga. 30071, USA) to facilitate observations of the position of the rat within the steel arena. Two metal trap boxes (3a, 3b) (each 25 cm×20 cm×12 cm; T. Eaton & Co. Inc., Twinsburg, Ohio 44087, USA) were placed in opposite quadrants of the arena (1) 10 cm from the wall to serve as harborage. Each box (3a, 3b) was fitted with a Petri dish (3 cm) containing a Whatman #1 filter paper disk (25 mm diam; Sigma-Aldrich Canada Co. Oakville, On L6H 6J8) treated with a randomly assigned treatment or control stimulus. Individual rats were released from a gated mesh and sheet metal box (2) (25 cm×15 cm×15 cm) positioned equidistant to each of the two metal trap boxes (3a, 3b).
For each experimental replicate, a single rat was removed from its “home” cage, and placed into the gated mesh- and sheet-metal container (2). After a 10-min acclimation period, the gate was raised, allowing the rat to leave the box (2) on its own accord and to explore the arena (1) and the trap boxes (3a, 3b).
A rat was classed a responder if it entered a trap box (3a, 3b). For each responding rat, two criteria were recorded and analyzed: 1) the trap box (3a, 3b) it entered first (“first entry”), and 2) the time it spent in the arena quadrants associated with a trap box (“time spent”). The latter data were obtained by recording the rat's position in any one of the four arena quadrants at each of 30 1-min intervals. Following each replicate, the arena and trap boxes were cleaned with a Percept™ disinfectant detergent (Virox Technologies Inc. Mississaugua ON L5N 5M4, Canada) and were wiped with a pet urine odor remover (Nature's Miracle®, Spectrum Brands Inc., Blacksburg, Va. 24060-6671, USA).
First-choice data and the time spent in a trap box quadrant were analyzed using a χ^2 test with Yates' correction for continuity (α=0.05) and the Student's t-test (α=0.05), respectively.
In Experiments 1 and 2, the laboratory experimental design of FIG. 1 was used to evaluate the responses of male and female rats to synthetic androstenone. For Experiments 1 and 2, the treatment stimulus consisted of filter paper sprayed with 2 ml of an aqueous microemulsion containing 4 μg of synthetic androstenone and a control stimulus which consisted of untreated filter paper. The treatment stimulus and control stimulus were placed in the trap boxes (3a, 3b). Experiment 1 tested the response of male rats and Experiment 2 tested the response of female rats.
In Experiments 3 and 4, the laboratory experimental design of FIG. 1 was used to evaluate the responses of male and female rats to synthetic progesterone and estrogen. For Experiments 3 and 4, the treatment stimulus consisted of filter paper impregnated with a 4-μg blend of the synthetic hormones progesterone and estrogen formulated in 50 μl of ether at a ratio of either 100:1 (Experiment 3) or 1000:1 (Experiment 4). The control stimulus in each of Experiments 3 and 4 consisted of filter paper impregnated with 50 μl of ether.
Experiment 14 used the laboratory experimental apparatus of FIG. 1 to test choices of female rats between a treatment stimulus consisting of filter paper treated with 150 ng of synthetic testosterone formulated in 50 μl of ether and a control stimulus consisting of filter paper treated with 50 μl of ether.

[1] = Experiment 14, female rats, 150 ng synthetic testosterone
[2] = Experiment 1, male rats, 4 μg synthetic androstenone
[3] = Experiment 2, female rats, 4 μg synthetic androstenone

Row | SMILES | first entry into baited trap box vs control trap box [1] | time spent in arena quadrant of baited trap box vs opposite control quadrant [1] | attractant effect on female rats (Experiment 14, female rats, 150 ng synthetic testosterone in 50 μl ether vs ether) | first entry into treatment trap box vs control trap box [2] | time spent in quadrants associated with stimulus vs opposite control quadrants [2] | attractive effect on male rats (Experiment 1, male rats, 4 μg synthetic androstenone on filter paper vs untreated filter paper) | first entry into treatment trap box vs control trap box [3] | time spent in quadrants associated with treatment stimulus vs opposite control quadrants [3] | attractive effect on female rats (Experiment 2, female rats, 4 μg synthetic androstenone on filter paper vs untreated filter paper)
1 | C[C@]12CC[C@H]3[C@@H](CCC4=CC(=O)CC[C@@]43C)[C@@H]1CC[C@@H]2O [testosterone, (8R,9S,10R,13S,14S,17S)-17-hydroxy-10,13-dimethyl-1,2,6,7,8,9,11,12,14,15,16,17-dodecahydrocyclopenta[a]phenanthren-3-one, reference compound] | significantly more often | significantly more time | very positive attractant effect | – | – | – | – | – | –
2 | C[C@]12CCC(=O)C[C@@H]1CC[C@@H]1[C@@H]2CC[C@]2(C)C=CC[C@@H]12 [androstenone, 5α-androst-16-en-3-one] | – | – | – | as often as | significantly less time | no observed attractive effect | significantly more often | significantly more time | very attractive effect
